Experimental data reported in patent US9353152B2, “Induction of the mitochondrial permeability transition” (NewSouth Innovations Pty Limited, priority 2002, dated 2016).

Key:
BAE cells [1] = experiment: Mitochondrial mass (nonyl acridine orange uptake); assay type: cell-based, bovine; settings: GSAO treatment 24 h, proliferating and growth-quiescent cells
Method: For measurements of superoxide levels with dihydroethidine, mitochondrial membrane potential with JC-1, mitochondrial mass with nonyl acridine orange, and apoptosis with annexin V, proliferating or growth-quiescent BAE cells were treated for 24 or 48 h with GSAO in six-well culture plates, then detached with trypsin/EDTA, washed once, and resuspended at 2×10^6 cells per mL in serum-free medium. Cells were then incubated for 15 min at room temperature with dihydroethidine (5 μM, Molecular Probes) or 30 min at room temperature with JC-1 (0.5 μg·mL^−1, Molecular Probes), annexin V-FITC (50 μl·mL^−1) (Pharmingen, La Jolla, Calif., USA), or acridine orange 10-nonyl bromide (5 μM, Molecular Probes). Cells were then washed once, resuspended in 0.5 mL serum-free medium, transferred to ice, and fluorescence was quantitated immediately by flow cytometry.

ANT Cys^160 = molecular target: T1, ANT Cys^160 (Rattus norvegicus, UniProt Q09073); experiment: Labelling of ANT with eosin-5-maleimide (competition); assay type: binding; settings: 200 nmol GSAO per mg of protein, sub-mitochondrial particles
T1 construct: Rat liver sub-mitochondrial particles were prepared by sonication and differential centrifugation; from tissue; host or cells: rat liver sub-mitochondrial particles
T1 sequence (Q09073 1-298): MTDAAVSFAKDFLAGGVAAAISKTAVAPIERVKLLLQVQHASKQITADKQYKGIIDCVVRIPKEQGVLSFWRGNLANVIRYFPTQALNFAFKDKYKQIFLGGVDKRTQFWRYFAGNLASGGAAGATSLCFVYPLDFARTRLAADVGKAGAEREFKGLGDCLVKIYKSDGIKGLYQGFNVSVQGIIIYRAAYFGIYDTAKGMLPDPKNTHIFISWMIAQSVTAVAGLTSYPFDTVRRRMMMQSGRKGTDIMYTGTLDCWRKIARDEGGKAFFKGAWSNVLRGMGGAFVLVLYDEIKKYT
Method: Rat liver sub-mitochondrial particles were prepared by sonication and differential centrifugation according to Majima et al. (1998). The particles were suspended at 20 mg of protein per mL in 10 mM Tris, pH 7.2 buffer containing 250 mM sucrose and 0.2 mM EDTA and incubated without or with 200 nmol GSAO per mg of protein for 10 min at 25° C., followed by 20 nmol of eosin-5-maleimide per mg of protein for 1 min at 0° C. in the dark. The labelling was terminated by addition of 10 μmol of dithiothreitol per mg of protein. The proteins were resolved on 4-20% gradient iGels and the eosin-labelled ANT was visualised by UV transillumination using a Fluor-S™ Multilmager (Bio-Rad, Hercules, Calif.).

BAE cells [2] = experiment: Cell viability assay, attached cells (methylene blue), proliferating or growth-quiescent cells; assay type: cell-based, bovine
Method: BAE or HMEC-1 cells were seeded at a density of 10^4 cells per cell into 96 well plates and allowed to adhere overnight and then treated as indicated.

[3] = tested on: human pancreatic carcinoma BxPC-3 cells; experiment: Cell proliferation and viability assay (MTT); assay type: cell-based; settings: 10% serum, 48 h; read-out: IC50 for proliferation arrest of BxPC-3 cells
Method: BAE or human pancreatic carcinoma BxPC-3 cells were seeded at a density of 10^3 cells per well into 96 well plates in DMEM containing 10% foetal bovine serum and allowed to adhere for 24 h. Cells were washed and incubated with DMEM containing 10% foetal bovine serum and GSAO or o-GSAO and cultured for a further 48 h. Some BAE cells were arrested for 24 h in medium containing 0.25% serum and cultured for a further 48 h in medium containing 0.25% or 10% serum, in the presence of GSAO or o-GSAO. Viable attached cells were determined using MTT.

BAE cells [4] = settings: read-out: IC50 (μM)*
[5] = Titration of arsenoxide compounds with DTT; assay type: physicochemical; settings: GSAO versus Compound 1
[6] = Tolerability in tumour-bearing mice; assay type: in vivo, SCID or C57Bl6/J mice
Method: Female 7 to 9 week old SCID or C57Bl6/J mice were used (Massachusetts General Hospital, Boston, Mass.). Mice were held in groups of 3 to 5 at a 12 hour day and night cycle and were given animal chow and water ad libidum. SCID or C57Bl6/J mice were anaesthetised by inhalation of isoflurane, the dorsal skin shaved and cleaned with ethanol, and a suspension of 2.5×10^6 BxPC-3, HT1080 or LLC cells in 0.2 mL of PBS, or saline for LLC cells, was injected S.C. in the proximal midline. LLC cells were prepared according to O'Reilly et al. (1997). Tumour volume was calculated using the relationship, a·b^2·0.52, where a is the longest and b the shortest diameter.

MPTP [7] = molecular target: T2, MPTP (Rattus norvegicus, UniProt Q09073); assay type: biochemical
T2 construct: Mitochondria were isolated from the livers of ˜250 g male Wistar rats; from tissue; host or cells: rat liver mitochondria (male Wistar rats)
T2 sequence (Q09073 2-298 limits assumed): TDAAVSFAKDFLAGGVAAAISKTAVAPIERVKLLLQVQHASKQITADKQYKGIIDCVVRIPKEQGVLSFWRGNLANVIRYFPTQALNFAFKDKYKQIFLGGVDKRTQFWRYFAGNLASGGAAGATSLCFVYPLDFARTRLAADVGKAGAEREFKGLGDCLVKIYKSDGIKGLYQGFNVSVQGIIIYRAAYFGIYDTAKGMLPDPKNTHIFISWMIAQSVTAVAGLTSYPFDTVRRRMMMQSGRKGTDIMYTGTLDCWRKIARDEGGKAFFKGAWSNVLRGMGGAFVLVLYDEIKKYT

Rat liver mitochondria = assay type: biochemical; settings: 100 μM GSAO, 0-60 min
MPTP [8] = molecular target: T2, MPTP; experiment: Mitochondria swelling assay (MPT induction, decrease in light scattering at 520 nm); assay type: biochemical
BxPC-3 tumours = experiment: Immunohistochemistry of tumour sections (CD31, PCNA, TUNEL); assay type: in vivo, SCID mice; settings: day 31, GSAO- versus GSAA-treated tumours
Source text: Tumours were fixed in Buffered Formalde-Fresh (Fisher Scientific, Fair Lawn, N.J.), embedded in paraffin and 5 μm thick sections were cut and placed on glass slides. Sections were stained with haematoxylin and eosin or for CD31, PCNA (Holmgren et al., 1995) or fragmented DNA (Gavrielli et al., 1992). […] The proliferative index was estimated by the percentage of cells scored under 400× magnification. A minimum of 1000 cells was counted in two separate sections. The apoptotic index was estimated by the percentage of cells scored under 400× magnification. A minimum of 1500 cells was counted in two separate sections.

BAE cells [9] = assay type: cell-based, bovine

N[C@@H](CCC(=O)N[C@@H](CSCC(=O)Nc1ccc([As]=O)cc1)C(=O)NCC(=O)O)C(=O)O (stereo partly shown) [GSAO, 4-(N—(S-glutathionylacetyl)amino)-phenylarsenoxide]
mitochondrial mass (BAE cells [1]): unchanged | competition for eosine-maleimide alkylation of ANT Cys^160 (ANT Cys^160): competed | effect on viability of growth-quiescent BAE cells (BAE cells [2]): little effect | IC50 [3]: > 300 µM | IC50 (BAE cells [4]): 8.28 µM | arsenical reactivity (titration with DTT) [5]: no significant difference | adverse affects of administration ([6]; 10 mg/kg/day s.c.): no apparent adverse affects | morphological changes in the heart, lungs, liver, kidneys, and spleen ([6]; 10 mg/kg/day s.c.): no morphological changes | average mice weights over the course of the experiments ([6]; GSAO versus GSAA treatment groups): the same | MPTP Swelling Rate Increase/GSAO* Mean (MPTP [7]): 1 | release of Cytochrome C into the medium (Rat liver mitochondria): triggered time-dependent release | half-time for GSAO mediated swelling of the mitochondria (MPTP [8]; 50-200 μM GSAO, increasing Ca^2+ concentration): reduced by added Ca^2+ | swelling of isolated rat liver mitochondria (MPTP [8]; GSAO 25-200 μM, GSAA, GSCA 100 μM, 60 min): triggered swelling | proliferative index (PCNA) (BxPC-3 tumours): the same | blood vessel density (CD31) (BxPC-3 tumours; p<0.001): significant reduction | apoptotic index (TUNEL) (BxPC-3 tumours; p=0.05): significant increase | cellular levels of O2^− versus concentration (BAE cells [9]): increased linearly with GSAO concentration in proliferating, but not growth-quiescent, BAE cells | decrease in H2O2 (BAE cells [9]): 30% | increase in the level of O2^− (BAE cells [9]): 100%
